Measured values from patent US11744840B2, “N-palmitoyl-D-glucosamine in a micronized form” (Innovet Italia S.R.L., priority 2018, dated 2023).

What was measured:
[1] = tested on: carrageenan edema in the rat's paw; test: carrageenan edema in the rat's paw, physical forms of PGA and Curcumin; assay type: in vivo; details: for edema as a percentage of the edema produced only by carrageenan (value of 100) / pharmacological effect on carrageenan edema (in words): rat; for edema as a percentage of the edema produced only by carrageenan (value of 100): PGA 30, PGA-m 20, CUR-m 10, PGACUR-m 30, PGA-sm 20 mg/kg; for pharmacological effect on carrageenan edema (in words): PGA 30, PGA-m 20, PGA-sm 20, CUR 10, PGACUR-m 30 mg/kg
Description: The experimental model of carrageenan edema was used in the rat's paw, which determines epithelial dysfunction at the paw level.
The experimental model of carrageenan edema in the paw was induced by sub-plantar injection of a carrageenan solution (containing 50 μl of sterile saline containing 1% carrageenan) into the right paw of the animal (rat).
At specific time intervals the plantar volume was measured by a plethysmometer (Ugo Basile, Milan, Italy). The increase in plantar volume was evaluated as the difference between the value obtained in the specific time intervals and the volume at baseline (time 0) measured immediately before the administration of carrageenan.
The following physical forms of N-palmitoyl-D-glucosamine were tested: • Non-micronized N-palmitoyl-D-glucosamine (PGA); • Micronized N-palmitoyl-D-glucosamine (PGA-m); • N-palmitoyl-D-glucosamine co-micronized with Curcumin (PGACUR-m); • N-palmitoyl-D-glucosamine in a sub-micron form (PGA-sm).
The following physical form of Curcumin was also tested: • Micronized Curcumin (CUR-m)
In all cases PGA was tested as a PGA/fatty acid mixture.
The thus obtained results, expressed as a percentage of the edema produced only by carrageenan (indicated with a value of 100), are as follows: […]

[2] = tested on: carrageenan edema in the rat's paw; test: carrageenan edema in the rat's paw, PGA with or without Polydatin; assay type: in vivo; details: Wistar rat, doses per group b126-b129, unit assumed
Description: Also in this case, the experimental model of carrageenan edema in the rat's paw was used, which determines epithelial dysfunction at the paw level.
The edema was induced by the sub-plantar injection of 50 μl of an aqueous 1% carrageenan solution. At time intervals (30 min, 1 h, 2 h, 3 h, 4 h, 5 h, 6 h) the volume of the injected paw was evaluated by means of a plethysmometer (Ugo Basile, Milan—Italy). The following physical forms of N-palmitoyl-D-glucosamine with or without Polydatin were tested in groups of 10 animals (Wistar strain weighing between 130 and 160 g) for each group, in the dosages indicated in brackets:
Group B) Carrageenan+micronized Palmitoylglucosamine (10 mg/kg)
Group C) Carrageenan+micronized Polydatin (1 mg/kg)
Group D) Carrageenan+Palmitoylglucosamine (10 mg/kg)+Polydatin (1 mg/kg) [mixed]
Group E) Carrageenan+Palmitoylglucosamine and co-micronized Polydatin [10:1] (11 mg/kg)

| Compound | edema as a percentage of the edema produced only by carrageenan (value of 100) ([1]; 30 min) [%] | edema as a percentage of the edema produced only by carrageenan (value of 100) ([1]; 1 hr) [%] | edema as a percentage of the edema produced only by carrageenan (value of 100) ([1]; 2 hr) [%] | edema as a percentage of the edema produced only by carrageenan (value of 100) ([1]; 3 hr) [%] | edema as a percentage of the edema produced only by carrageenan (value of 100) ([1]; 4 hr) [%] | edema as a percentage of the edema produced only by carrageenan (value of 100) ([1]; 5 hr) [%] | Paw volume ([2]; 30 min from treatment) [mL] | Paw volume ([2]; 1 h from treatment) [mL] | Paw volume ([2]; 2 h from treatment) [mL] | Paw volume ([2]; 3 h from treatment) [mL] | Paw volume ([2]; 4 h from treatment) [mL] | Paw volume ([2]; 5 h from treatment) [mL] | Paw volume ([2]; 6 h from treatment) [mL] | pharmacological effect on carrageenan edema (in words) [1] | other results |
| --- | --- | --- | --- | --- | --- | --- | --- | --- | --- | --- | --- | --- | --- | --- | --- |
| COc1cc(/C=C/C(=O)CC(=O)/C=C/c2ccc(O)c(OC)c2)ccc1O [CUR-m, Curcumin, reference compound] | 100.3 | 95.4 | 95.1 | 94.8 | 96.2 | 97.4 | – | – | – | – | – | – | – | – | pharmacological effect on carrageenan edema (in words) ([1]; listed as micronized CUR): no significant pharmacological effect; pharmacological effect on carrageenan edema (in words) ([1]; listed as micronized Curcumin): almost total inactivity |
| OC[C@H]1O[C@@H](Oc2cc(O)cc(/C=C/c3ccc(O)cc3)c2)[C@H](O)[C@@H](O)[C@@H]1O [Group C), Polydatin, reference compound] | – | – | – | – | – | – | 0.21 | 0.32 | 0.69 | 1.03 | 1.19 | 1.28 | 0.95 | – | – |
| CCCCCCCCCCCCCCCC(=O)N[C@H]1C(O)O[C@H](CO)[C@@H](O)[C@@H]1O (stereo partly drawn) [PGA, N-palmitoyl-D-glucosamine] | 100.0 | 100.0 | 100.0 | 100.0 | 100.0 | 100.0 | – | – | – | – | – | – | – | – | pharmacological effect on carrageenan edema (in words) ([1]; listed as PGA (non-micronized)): no pharmacological effect; pharmacological effect on carrageenan edema (in words) ([1]; listed as non-micronized PGA): total inactivity; melting point: 202 °C (dec.) |
| CCCCCCCCCCCCCCCC(=O)N[C@H]1C(O)O[C@H](CO)[C@@H](O)[C@@H]1O (stereo partly drawn) [PGA-m, N-palmitoyl-D-glucosamine] | 100.0 | 92.2 | 80.1 | 71.5 | 70.4 | 75.5 | 0.23 | 0.33 | 0.81 | 1 | 1.21 | 1.33 | 1.05 | apparent pharmacological effect | reduction of the Carrageenan edema ([1]; PGA-m 20 mg/Kg, co-micronized PGA-m 20 mg/Kg + CUR 10 mg/kg, corresponds to the 5 hr values of Table 1): 24.5% |
| CCCCCCCCCCCCCCCC(=O)N[C@H]1C(O)O[C@H](CO)[C@@H](O)[C@@H]1O (stereo partly drawn) [PGA-sm, N-palmitoyl-D-glucosamine] | 100.0 | 100.0 | 98.0 | 97.0 | 98.0 | 98.0 | – | – | – | – | – | – | – | no significant pharmacological effect | pharmacological effect on carrageenan edema (in words) ([1]; listed as sub-micron PGA): markedly pejorative activity compared to the micronized PGA; pharmacological effect on carrageenan edema (in words) ([1]; listed as sub-micronized PGA): almost total inactivity |
